{"source": "ChEMBL document CHEMBL1201862", "about": "“PubChem BioAssay data set” (2004)", "key": {"fMet-Leu-Phe receptor": {"target": "T1, fMet-Leu-Phe receptor (Homo sapiens, UniProt P21462)", "T1 sequence (P21462 whole entry)": "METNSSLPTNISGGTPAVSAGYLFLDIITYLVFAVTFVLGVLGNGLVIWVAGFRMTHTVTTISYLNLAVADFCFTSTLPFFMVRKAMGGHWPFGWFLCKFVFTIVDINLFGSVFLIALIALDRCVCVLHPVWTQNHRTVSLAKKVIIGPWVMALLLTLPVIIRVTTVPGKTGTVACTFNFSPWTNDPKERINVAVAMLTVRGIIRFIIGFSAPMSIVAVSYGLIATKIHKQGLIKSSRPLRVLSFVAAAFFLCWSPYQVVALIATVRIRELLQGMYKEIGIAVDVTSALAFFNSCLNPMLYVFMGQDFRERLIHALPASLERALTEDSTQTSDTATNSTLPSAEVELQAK", "assay": "FPR ligands, dose response (AID 519)", "type": "functional"}, "[1]": {"target": "T2, Replicative DNA helicase DnaB (Mycobacterium tuberculosis, UniProt P9WMR3)", "T2 sequence (P9WMR3 whole entry)": "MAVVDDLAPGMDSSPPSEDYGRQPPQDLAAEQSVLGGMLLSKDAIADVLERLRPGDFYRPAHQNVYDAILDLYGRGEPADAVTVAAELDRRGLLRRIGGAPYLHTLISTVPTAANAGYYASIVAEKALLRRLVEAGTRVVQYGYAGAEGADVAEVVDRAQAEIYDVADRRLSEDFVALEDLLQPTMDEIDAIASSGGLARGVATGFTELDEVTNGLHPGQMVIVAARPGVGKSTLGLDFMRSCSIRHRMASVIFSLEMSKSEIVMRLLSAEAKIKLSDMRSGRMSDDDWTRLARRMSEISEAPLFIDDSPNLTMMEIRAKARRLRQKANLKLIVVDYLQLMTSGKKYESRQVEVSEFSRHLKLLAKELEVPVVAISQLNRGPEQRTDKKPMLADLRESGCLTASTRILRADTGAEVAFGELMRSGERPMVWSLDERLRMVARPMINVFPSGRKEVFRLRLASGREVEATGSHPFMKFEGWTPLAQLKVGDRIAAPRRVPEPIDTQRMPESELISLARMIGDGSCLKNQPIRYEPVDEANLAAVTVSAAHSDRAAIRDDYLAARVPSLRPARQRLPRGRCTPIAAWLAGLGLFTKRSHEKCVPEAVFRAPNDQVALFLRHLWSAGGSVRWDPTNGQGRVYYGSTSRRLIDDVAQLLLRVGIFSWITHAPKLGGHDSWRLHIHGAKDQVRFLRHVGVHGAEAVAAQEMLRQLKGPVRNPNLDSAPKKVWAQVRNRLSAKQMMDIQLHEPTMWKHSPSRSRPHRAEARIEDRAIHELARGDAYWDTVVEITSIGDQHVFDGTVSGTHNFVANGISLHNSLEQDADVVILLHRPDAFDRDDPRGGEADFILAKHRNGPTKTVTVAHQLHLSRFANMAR", "assay": "DnaB intein splicing inhibitors, dose response, biochemical, cell-free fluorescence (AID 449749)", "type": "functional"}, "Protein RecA": {"target": "T3, Protein RecA (Mycobacterium tuberculosis, UniProt P9WHJ3)", "T3 sequence (P9WHJ3 whole entry)": "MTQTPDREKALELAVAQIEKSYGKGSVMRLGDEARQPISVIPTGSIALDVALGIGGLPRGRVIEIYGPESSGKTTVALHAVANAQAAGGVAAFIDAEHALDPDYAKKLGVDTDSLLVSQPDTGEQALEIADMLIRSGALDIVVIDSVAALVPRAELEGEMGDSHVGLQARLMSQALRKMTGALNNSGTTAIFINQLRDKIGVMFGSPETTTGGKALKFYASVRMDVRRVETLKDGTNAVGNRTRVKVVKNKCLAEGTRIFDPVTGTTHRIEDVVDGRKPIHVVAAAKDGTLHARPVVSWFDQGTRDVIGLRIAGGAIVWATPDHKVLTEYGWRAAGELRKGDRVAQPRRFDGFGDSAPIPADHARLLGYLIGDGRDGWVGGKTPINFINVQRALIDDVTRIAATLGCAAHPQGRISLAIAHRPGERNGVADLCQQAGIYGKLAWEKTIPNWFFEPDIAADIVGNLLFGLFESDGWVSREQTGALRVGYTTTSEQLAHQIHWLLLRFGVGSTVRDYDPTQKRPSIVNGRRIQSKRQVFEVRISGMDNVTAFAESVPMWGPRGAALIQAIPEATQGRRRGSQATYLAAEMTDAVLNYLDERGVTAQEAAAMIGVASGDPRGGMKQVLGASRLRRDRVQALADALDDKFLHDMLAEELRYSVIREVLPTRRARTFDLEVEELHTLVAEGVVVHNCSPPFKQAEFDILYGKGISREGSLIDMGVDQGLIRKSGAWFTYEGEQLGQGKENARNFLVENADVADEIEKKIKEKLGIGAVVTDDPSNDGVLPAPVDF", "assay": "Fluorescence Cell-Free Homogeneous Dose Retest to Identify Inhibitors of RecA-Intein Splicing Activity. [Related pubchem assays (depositor defined):AID2097, AID2223, AID489010, AID492950]", "type": "functional"}, "Genome polyprotein": {"target": "Genome polyprotein (dengue virus type 2, UniProt P29990)", "sequence (P29990 2492-3391 limits assumed)": "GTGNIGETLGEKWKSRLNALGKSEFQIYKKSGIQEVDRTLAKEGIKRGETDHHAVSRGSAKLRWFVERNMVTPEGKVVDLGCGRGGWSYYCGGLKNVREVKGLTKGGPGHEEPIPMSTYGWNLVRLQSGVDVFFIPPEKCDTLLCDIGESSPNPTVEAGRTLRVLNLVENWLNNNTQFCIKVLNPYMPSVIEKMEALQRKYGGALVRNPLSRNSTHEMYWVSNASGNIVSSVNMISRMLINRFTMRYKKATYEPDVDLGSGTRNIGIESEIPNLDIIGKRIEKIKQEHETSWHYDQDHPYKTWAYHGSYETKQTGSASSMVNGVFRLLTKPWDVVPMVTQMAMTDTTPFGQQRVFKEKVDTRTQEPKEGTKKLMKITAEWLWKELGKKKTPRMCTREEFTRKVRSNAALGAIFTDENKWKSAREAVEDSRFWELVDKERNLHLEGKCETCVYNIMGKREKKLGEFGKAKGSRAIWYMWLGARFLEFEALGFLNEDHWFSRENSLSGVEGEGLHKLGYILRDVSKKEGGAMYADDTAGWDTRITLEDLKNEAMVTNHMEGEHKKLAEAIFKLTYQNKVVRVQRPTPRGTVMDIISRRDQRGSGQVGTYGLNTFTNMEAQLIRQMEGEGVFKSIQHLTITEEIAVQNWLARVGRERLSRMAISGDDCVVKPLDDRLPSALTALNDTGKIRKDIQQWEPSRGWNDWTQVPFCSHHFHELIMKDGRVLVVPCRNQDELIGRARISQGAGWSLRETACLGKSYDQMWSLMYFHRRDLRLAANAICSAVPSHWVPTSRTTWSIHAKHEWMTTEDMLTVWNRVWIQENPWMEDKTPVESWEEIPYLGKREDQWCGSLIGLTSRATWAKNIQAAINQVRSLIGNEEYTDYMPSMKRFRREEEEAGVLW", "assay": "Dengue-2 NS5 methyltransferase inhibitors, primary screen, biochemical, confirmation dose response (AID 588689)", "type": "functional"}, "[2]": {"target": "T4, Tyrosyl-DNA phosphodiesterase 2 (Homo sapiens, UniProt O95551)", "T4 sequence (O95551 whole entry)": "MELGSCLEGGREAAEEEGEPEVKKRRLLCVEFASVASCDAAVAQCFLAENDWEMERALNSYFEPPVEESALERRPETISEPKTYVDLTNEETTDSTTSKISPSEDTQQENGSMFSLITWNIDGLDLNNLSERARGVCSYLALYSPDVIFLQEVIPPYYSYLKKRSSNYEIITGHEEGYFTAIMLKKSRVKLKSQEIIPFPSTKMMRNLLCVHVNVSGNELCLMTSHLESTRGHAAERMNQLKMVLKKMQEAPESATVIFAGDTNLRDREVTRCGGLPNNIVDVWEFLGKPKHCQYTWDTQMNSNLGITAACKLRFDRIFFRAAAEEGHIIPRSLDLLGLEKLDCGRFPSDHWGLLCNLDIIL", "assay": "human TDP2 enzyme inhibitors, dose response, biochemical, epi absorbance, IC50 (AID 743297)"}, "[3]": {"assay": "A549 cell cytotoxicity, dose response, cytotoxicity control, plate reader, cherry-pick, antagonist series (AID 743412)", "type": "functional, cell-based"}, "[4]": {"assay": "HepG2 cell cytotoxicity, dose response, cytotoxicity control, plate reader, cherry-pick, antagonist series (AID 743416)", "type": "functional, cell-based"}, "[5]": {"assay": "LGR2 antagonists, dose response, cell-based, HEK293, CRE-luciferase reporter, cherry pick, set 2 (AID 743343);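 note: transfected cells were stimulated with diluted bursicon conditioned medium after compound addition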", "type": "functional"}, "[6]": {"assay": "MC4R antagonists, dose response, counter-screen for LGR2 antagonist project, cell-based, plate reader, cherry pick (AID 743444);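 note: transfected HEK 293 cells stimulated with alpha-MSH peptide; potency of inhibitors of the alpha-MSH evoked signal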", "type": "functional"}}, "note": "Active and inactive are the calls of the source.", "data": [{"molecule": "COCCCN1C(=O)C(O)=C(C(=O)c2ccccc2)C1c1ccc2c(c1)OCO2", "note": "(stereo not given)", "values": [{"measurement": "Ki", "setting": "fMet-Leu-Phe receptor", "value": "29.6 µM (inactive)"}]}, {"molecule": "COc1cccc(C(c2c(C)nn(-c3ccccc3)c2O)c2c(C)nn(-c3ccccc3)c2O)c1OC", "values": [{"measurement": "AC50", "setting": "[1]", "value": "1.25 µM (active)"}, {"measurement": "EC50", "setting": "Protein RecA", "value": "0.81 µM (active)"}, {"measurement": "IC50", "setting": "Genome polyprotein", "value": "61.1 µM (active)"}, {"measurement": "IC50", "setting": "[2]", "value": "24.7 µM (inactive)"}]}, {"molecule": "Cc1oc2cc(O)cc(O)c2c(=O)c1-c1ccc2c(c1)OCCCO2", "values": [{"measurement": "Ki", "setting": "fMet-Leu-Phe receptor", "value": "> 66.7 µM (inactive)"}]}, {"molecule": "N#C[C@@H]1[C@H](c2ccc(C#Cc3ccccc3F)cc2)[C@@H](CO)N1C(=O)C1CCCC1", "values": [{"measurement": "AC50", "setting": "[3]", "value": "> 52 µM (inactive)"}, {"measurement": "AC50", "setting": "[4]", "value": "39.6 µM (active)"}, {"measurement": "AC50", "setting": "[5]", "value": "8.84 µM (active)"}, {"measurement": "AC50", "setting": "[6]", "value": "6.34 µM (active)"}]}]}
